Measured values taken from ChEMBL document CHEMBL3877294, “Discovery of Ruzasvir (MK-8408): A Potent, Pan-Genotype HCV NS5A Inhibitor with Optimized Activity against Common Resistance-Associated Polymorphisms” (J Med Chem, 2017).
Numbering of substitutions follows the chain as printed.

How the values were obtained:
[1] = Half life in dog at 1 mg/kg, iv by LC/MS method; assay type: ADME, organism-based, Canis lupus familiaris; details: in vivo
[2] = Drug uptake in rat at 10 mg/kg, po measured at 24 hrs post dose by LC/MS method; assay type: ADME, organism-based; details: in vivo, read-out: Drug uptake
[3] = system: Huh-7; assay: Inhibition of HCV genotype-2b NS5A harboring methionine at position 31 infected in human HuH7 cells by luciferase reporter gene assay; assay type: cell-based; details: Hepatitis C virus subtype 2b
[4] = AUC (0 to t) in dog at 5 mg/kg, po measured after 24 hrs by LC/MS method; assay type: ADME, organism-based, Canis lupus familiaris; set-up: time < 24 hr, dose 5 mg/kg, route oral; details: in vivo
[5] = system: Nonstructural protein 5A (Hepatitis C virus), Q5L478 [UNDEFINED MUTATION]; assay: Inhibition of HCV genotype-1a NS5A L31V mutant infected in human HuH7 cells by luciferase reporter gene assay; assay type: cell-based; details: Hepatitis C virus subtype 1a; Huh-7
[6] = system: Huh-7; assay: Inhibition of HCV genotype-3a NS5A infected in human HuH7 cells by luciferase reporter gene assay; assay type: cell-based; details: Hepatitis C virus subtype 3a
[7] = Selectivity ratio for EC90 for HCV genotype-2b NS5A harboring methionine at position 31 to EC90 for HCV genotype-1a NS5A
[8] = system: Huh-7; assay: Inhibition of HCV genotype-4a NS5A infected in human HuH7 cells by luciferase reporter gene assay; assay type: cell-based; details: Hepatitis C virus subtype 4a
[9] = Selectivity ratio for EC90 for HCV genotype-4a NS5A to EC90 for HCV genotype-1a NS5A
[10] = system: T1, Nonstructural protein 5A (Hepatitis C virus), Q5L478 [Y93H]; assay: Inhibition of HCV genotype-1a NS5A Y93H mutant infected in human HuH7 cells by luciferase reporter gene assay; assay type: cell-based; details: Hepatitis C virus subtype 1a; Huh-7
T1 sequence (whole entry): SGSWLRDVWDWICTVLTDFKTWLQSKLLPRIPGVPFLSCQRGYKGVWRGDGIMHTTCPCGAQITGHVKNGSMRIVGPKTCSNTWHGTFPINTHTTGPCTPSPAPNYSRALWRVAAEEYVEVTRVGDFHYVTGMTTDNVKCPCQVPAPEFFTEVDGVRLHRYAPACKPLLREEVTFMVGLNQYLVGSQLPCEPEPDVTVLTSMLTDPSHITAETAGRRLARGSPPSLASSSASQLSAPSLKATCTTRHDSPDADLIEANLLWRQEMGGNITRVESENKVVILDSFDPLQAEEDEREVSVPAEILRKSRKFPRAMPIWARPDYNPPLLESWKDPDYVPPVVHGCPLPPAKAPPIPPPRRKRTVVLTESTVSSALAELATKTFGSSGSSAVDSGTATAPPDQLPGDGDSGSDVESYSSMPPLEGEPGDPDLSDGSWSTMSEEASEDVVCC

[11] = system: Hepatitis C virus subtype 1a; assay: Selectivity ratio for EC90 for HCV genotype-1a NS5A Y93H mutant to EC90 for HCV genotype-1a NS5A
[12] = Plasma clearance in dog at 1 mg/kg, iv measured after 24 hrs by LC/MS method; assay type: ADME, organism-based, Canis lupus familiaris
[13] = Selectivity ratio for EC90 for HCV genotype-3a NS5A to EC90 for HCV genotype-1a NS5A
[14] = Oral bioavailability in rat at 10 mg/kg measured after 24 hrs by LC/MS method; assay type: ADME, organism-based; details: in vivo
[15] = Half life in rat at 2 mg/kg, iv by LC/MS method; assay type: ADME, organism-based; details: in vivo
[16] = Drug uptake in dog at 5 mg/kg, po measured at 24 hrs post dose by LC/MS method; assay type: ADME, organism-based, Canis lupus familiaris; details: in vivo, read-out: Drug uptake
[17] = system: Hepatitis C virus subtype 1a; assay: Selectivity ratio for EC90 for HCV genotype-1a NS5A L31V mutant to EC90 for HCV genotype-1a NS5A
[18] = AUC in rat at 10 mg/kg, po measured after 24 hrs by LC/MS method; assay type: ADME, organism-based; set-up: time < 24 hr, dose 10 mg/kg, route oral; details: in vivo
[19] = Oral bioavailability in dog at 5 mg/kg measured after 24 hrs by LC/MS method; assay type: ADME, organism-based, Canis lupus familiaris; details: in vivo
[20] = Plasma clearance in rat at 2 mg/kg, iv measured after 24 hrs by LC/MS method; assay type: ADME, organism-based
[21] = system: Huh-7; assay: Inhibition of HCV genotype-1a NS5A infected in human HuH7 cells by luciferase reporter gene assay; assay type: cell-based; details: Hepatitis C virus subtype 1a
[22] = system: T2, Nonstructural protein 5A (Hepatitis C virus), Q5L478 [Y93C]; assay: Inhibition of HCV genotype-1a NS5A Y93C mutant infected in human HuH7 cells by luciferase reporter gene assay; assay type: cell-based; details: Hepatitis C virus subtype 1a; Huh-7
T2 sequence (whole entry): T1 sequence (whole entry) with H93C

[23] = system: Huh-7; assay: Inhibition of HCV genotype-2a NS5A infected in human HuH7 cells by luciferase reporter gene assay; assay type: cell-based; details: Hepatitis C virus subtype 2a
[24] = system: Huh-7; assay: Inhibition of HCV genotype-6 NS5A infected in human HuH7 cells by luciferase reporter gene assay; assay type: cell-based; details: Hepatitis C virus genotype 6
[25] = system: Huh-7; assay: Inhibition of HCV genotype-5a NS5A infected in human HuH7 cells by luciferase reporter gene assay; assay type: cell-based; details: Hepatitis C virus subtype 5a
[26] = system: Huh-7; assay: Inhibition of HCV genotype-6d NS5A infected in human HuH7 cells by luciferase reporter gene assay; assay type: cell-based; details: Hepatitis C virus subtype 6d
[27] = system: Nonstructural protein 5A (Hepatitis C virus), Q5L478 [UNDEFINED MUTATION]; assay: Inhibition of HCV genotype-1a NS5A Q30R mutant infected in human HuH7 cells by luciferase reporter gene assay; assay type: cell-based; details: Hepatitis C virus subtype 1a; Huh-7
[28] = system: Huh-7; assay: Inhibition of HCV genotype-1b NS5A infected in human HuH7 cells by luciferase reporter gene assay; assay type: cell-based; details: Hepatitis C virus subtype 1b
[29] = system: T1, Nonstructural protein 5A (Hepatitis C virus), Q5L478 [Y93H]; assay: Inhibition of HCV genotype-1b NS5A Y93H mutant infected in human HuH7 cells by luciferase reporter gene assay; assay type: cell-based; details: Hepatitis C virus subtype 1b; Huh-7
[30] = Oral bioavailability in rhesus monkey at 5 mg/kg measured at 48 hrs post dose by LC/MS/MS method; assay type: ADME, organism-based, Macaca mulatta; details: in vivo
[31] = AUC (0 to t) in rhesus monkey at 5 mg/kg, po measured after 48 hrs by LC/MS/MS method; assay type: ADME, organism-based, Macaca mulatta; set-up: dose 5 mg/kg, time < 48 hr, route oral; details: in vivo
[32] = Plasma clearance in rhesus monkey at 1 mg/kg, iv measured after 48 hrs by LC/MS/MS method; assay type: ADME, organism-based, Macaca mulatta
[33] = Half life in rhesus monkey at 1 mg/kg, iv by LC/MS/MS method; assay type: ADME, organism-based, Macaca mulatta; details: in vivo
[34] = AUC (0 to t) in rat at 10 mg/kg, po measured after 24 hrs by LC/MS method; assay type: ADME, organism-based; set-up: dose 10 mg/kg, time < 24 hr, route oral; details: in vivo

Structure (SMILES) | half-life [1] [h] | concentration at 24 h [2] [nM] | EC90 [3] [nM] | AUC(0-t) at 24 h [4] [µM·h] | EC90 [5] [nM] | EC90 [6] [nM] | Selectivity ratio [7] | EC90 [8] [nM] | Selectivity ratio [9] | EC90 [10] [nM] | Selectivity ratio [11] | clearance [12] [mL/min/kg] | Selectivity ratio [13] | bioavailability [14] [%] | half-life [15] [h] | concentration at 24 h [16] [nM] | AUC at 24 h [18] [µM·h] | bioavailability [19] [%] | clearance [20] [mL/min/kg] | EC90 [21] [nM] | further results
CCCc1ncc(C2Oc3cc(-c4cnc([C@@H]5CCCN5C(=O)[C@@H](NC(=O)OC)C(C)C)[nH]4)cc(F)c3-c3cc4cc(-c5cnc([C@@H]6CCCN6C(=O)[C@@H](NC(=O)OC)C(C)C)[nH]5)ccc4n32)s1 (stereo not given in full) | 11.5 | 4 | 0.14 | 11 | 0.02 | 0.002 | 140 | 0.01 | 10 | 0.088 | 88 | 1.8 | 2 | 7 | 4.3 | 76.7 | 0.8 | 23 | 16 | 0.001 | Selectivity ratio [17]: 20
CCc1ccc([C@@H]2Oc3cc(-c4cnc([C@@H]5CCCN5C(=O)[C@@H](NC(=O)OC)C(C)C)[nH]4)cc(F)c3-c3cc4cc(-c5cnc([C@@H]6CCCN6C(=O)[C@@H](NC(=O)OC)C(C)C)[nH]5)ccc4n32)s1 | 15 | 17 | 0.9 | 13.8 | 0.067 | 0.002 | 300 | 0.003 | 1 | 0.06 | 20 | 1.7 | 1 | 3 | 6.4 | 172 | 0.7 | 21 | 8 | 0.003 | Selectivity ratio [17]: 22
COC(=O)N[C@H](C(=O)N1CCC[C@H]1c1nc(-c2ccc3c(c2)O[C@@H](c2ccccc2)n2c-3cc3cc(-c4c[nH]c([C@@H]5CCCN5C(=O)[C@@H](NC(=O)OC)C(C)C)n4)ccc32)c[nH]1)C(C)C | – | – | 11 | – | – | 0.12 | – | 0.016 | – | – | – | – | – | – | – | – | – | – | – | 0.006 | EC90 [22]: 1.1 nM; EC90 [23]: 0.019 nM; EC90 [24]: 0.017 nM; EC90 [25]: 0.002 nM; EC90 [26]: 0.008 nM; EC90 [27]: 2.5 nM; EC90 [28]: 0.006 nM; EC90 [29]: 0.89 nM
COC(=O)N[C@H](C(=O)N1CCC[C@H]1c1ncc(-c2cc(F)c3c(c2)OC(c2ccc(C4CC4)s2)n2c-3cc3cc(-c4cnc([C@@H]5CCCN5C(=O)[C@@H](NC(=O)OC)C(C)C)[nH]4)ccc32)[nH]1)C(C)C (stereo not given in full) | 10 | 16 | 0.16 | 10.6 | 0.02 | 0.007 | 53 to 200 | 0.009 | 3 | 0.11 | 37 | 1.5 | 2 | 5 | 7 | 134 | 1.1 | 11 | 11 | 0.003 | –
COC(=O)N[C@H](C(=O)N1CCC[C@H]1c1ncc(-c2cc(F)c3c(c2)O[C@@H](c2cnc(C4CC4)s2)n2c-3cc3cc(-c4cnc([C@@H]5CCCN5C(=O)[C@@H](NC(=O)OC)C(C)C)[nH]4)ccc32)[nH]1)C(C)C [RUZASVIR] | 4 | 3 | 0.036 | 12.9 | 0.016 | 0.006 to 0.007 | 12 | 0.007 to 0.011 | 2 | 0.067 | 22 | 1.6 | 2 | 4 | 4.7 | 43 | 0.4 | 22 | 13 | 0.003 | EC90 [22]: 0.002 nM; EC90 [23]: 0.001 nM; EC90 [24]: 0.007 nM; EC90 [25]: 0.001 nM; Selectivity ratio [17]: 5; EC90 [26]: 0.027 nM; EC90 [27]: 0.011 nM; EC90 [28]: 0.003 nM; EC90 [29]: 0.009 nM
COC(=O)N[C@H](C(=O)N1CCC[C@H]1c1ncc(-c2cc(F)c3c(c2)OC(c2cc(C(C)C)no2)n2c-3cc3cc(-c4cnc([C@@H]5CCCN5C(=O)[C@@H](NC(=O)OC)C(C)C)[nH]4)ccc32)[nH]1)C(C)C (stereo not given in full) | – | – | 0.92 | – | 0.056 | 0.019 | – | – | – | 0.42 | – | – | – | – | – | – | – | – | – | 0.002 | bioavailability [30]: 10%; AUC(0-t) at 48 h [31]: 3.9 µM·h; clearance [32]: 2.2 mL/min/kg; half-life [33]: 10.2 h
COC(=O)N[C@H](C(=O)N1CCC[C@H]1c1ncc(-c2cc(F)c3c(c2)OC(c2cnc(C4CC4)s2)n2c-3cc3cc(-c4cnc([C@@H]5C[C@H]6C[C@H]6N5C(=O)[C@@H](NC(=O)OC)C(C)C)[nH]4)ccc32)[nH]1)C(C)C (stereo not given in full) | – | 1.9 | 0.076 | – | 0.007 | 0.011 | – | 0.006 | – | 0.021 | – | – | – | 4 | 3.9 | – | – | – | 12 | 0.006 | AUC(0-t) at 24 h [34]: 0.52 µM·h
COC(=O)N[C@H](C(=O)N1CCC[C@H]1c1ncc(-c2ccc3c(c2)OC(c2ccc(C4CC4)s2)n2c-3cc3cc(-c4cnc([C@@H]5CCCN5C(=O)[C@@H](NC(=O)OC)C(C)C)[nH]4)ccc32)[nH]1)C(C)C (stereo not given in full) | – | – | 0.35 | – | – | – | 117 | – | – | 1.2 | 400 | – | – | – | – | – | – | – | – | 0.003 | –
COC(=O)N[C@H](C(=O)N1CCC[C@H]1c1ncc(-c2cc(F)c3c(c2)OC(c2cccs2)n2c-3cc3cc(-c4cnc([C@@H]5CCCN5C(=O)[C@@H](NC(=O)OC)C(C)C)[nH]4)ccc32)[nH]1)C(C)C (mixture of isomers) | – | – | 8 to 8.2 | – | 0.76 | 0.016 | 267 | – | – | 3 to 3.4 | 100 | – | – | – | – | – | – | – | – | 0.03 | –
